One test addresses T1, GHS-R1a receptor (Homo sapiens, UniProt Q92847).
T1 construct: expressed in transfected cells; host or cells: LLC-PK1 cells, transient calcium phosphate transfection, membrane preparation
Briefly: GHS-R1a receptor competitive binding assay with 125I-Ghrelin. The conditions noted are these: for IC50: competition with 125I-Ghrelin, GHS-R1a transiently transfected in LLC-PK1 cells; for loss of GHS-R1a binding affinity, factor relative to GHRP-6: factor of decrease compared to GHRP-6. How it is done:
Transfection LLC-PK1 cells were seeded at 1.5×10^6 cells/10 cm Petri-dishes and grown for 24 h in DMEM high-glucose (4.5 g/L) with 10% foetal bovine serum supplemented with penicillin (10,000 Units/ml) and streptomycin (10,000 ug/ml), and cultured at 37° C., with 5% CO2. The medium was then replaced for another 4-5 hours before CaPO4 calcium phosphate transfection. The DNA solution consists of 40 μg of DNA in a volume of 500 μl in which was added 500 μl of 2 mM Tris-HCl pH 8.0, 0.2 mM EDTA pH 8.0 containing 500 mM CaCl2, to a final volume of 1 ml. Then 1 ml of 50 mM Hepes, 280 mM NaCl, 1.5 mM Na2HPO4 pH to 7.1 (HBSS) was added by alterning 1 drop/2 air bubbles. The transfection mix reaction was incubated at RT for 30 min. After the incubation period, 1 ml of the mix was added to each plate and distributed evenly for incubation. The media was replaced with standard DMEM-high glucose media for another 24 h and cells were collected for membrane preparation.
Membrane preparation The experiment was carried out 4° C. unless specified. Cells were washed 2 times with PBS and with the homogenization buffer (HB) consisting of 50 mM Tris, 5 mM MgCl2, 2.5 mM EDTA, 30 ug/ml bacitracin at pH 7.3 and were scraped in Eppendorf tubes. Cells were lysed with 2 cycles of freeze/thawing using liquid nitrogen and were then centrifuged at 4° C. for 20 min at 10,000 g to collect the membranes. The membranes were re-suspended in a small volume of HB and aliquoted for storage at −80° C.
The non-specific binding was determined by excess of competitive ligand at 10^−5M. The reaction was carried out at RT for 1 h.

For another test, the target named is T2, CD36 (Rattus norvegicus, UniProt Q07969).
T2 construct: the rat cardiac membranes (200 μg) as source of CD36; from tissue; host or cells: Sprague Dawley rat heart (cardiac membranes)
T2 sequence (Q07969 whole entry): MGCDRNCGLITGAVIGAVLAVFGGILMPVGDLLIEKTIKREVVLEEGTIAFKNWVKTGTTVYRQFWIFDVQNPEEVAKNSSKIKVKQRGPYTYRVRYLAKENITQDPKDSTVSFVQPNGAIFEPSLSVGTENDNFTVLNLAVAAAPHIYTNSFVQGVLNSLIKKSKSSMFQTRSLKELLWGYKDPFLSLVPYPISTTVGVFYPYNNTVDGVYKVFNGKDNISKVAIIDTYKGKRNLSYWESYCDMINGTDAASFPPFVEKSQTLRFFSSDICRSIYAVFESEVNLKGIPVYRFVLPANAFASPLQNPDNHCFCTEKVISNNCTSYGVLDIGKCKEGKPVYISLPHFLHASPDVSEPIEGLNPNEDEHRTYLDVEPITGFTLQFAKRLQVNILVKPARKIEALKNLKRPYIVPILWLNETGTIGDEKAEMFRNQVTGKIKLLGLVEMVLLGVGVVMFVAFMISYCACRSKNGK
Briefly: Competitive covalent CD36 binding assay using photoactivatable [125I]-Tyr-Bpa-Ala-Hexarelin. The note with it: for IC50: displacement of [125I]-Tyr-Bpa-Ala-Hexarelin; for drop of CD36 affinity, factor: factor of decrease, reference peptide not stated. As for the experimental part: Animal use was in accordance with the Institutional Animal Ethics Committee and the Canadian Council on Animal Care guidelines for the use of experimental animals. Sprague Dawley (275-350 g) rats were anaesthetized with sodium pentobarbital and their hearts were promptly removed in ice-cold saline and the cardiac membranes were prepared according to Harigaya and Schwartz.^lxvi
Nonspecific binding was defined as binding not displaced by 50 μM peptide. After an incubation period of 60 min at 22° C., membranes were submitted to UV irradiation at 365 nm for 15 min at 4° C. After centrifugation at 12 000 g for 15 min, the pellets were resuspended in 100 μl of sample buffer consisting of 62 mM Tris-HCl, pH 6.8, 2% SDS, 10% glycerol, 15% 2-mercapto-ethanol, and 0.05% bromophenol blue, and boiled for 5 min prior to being subjected to electrophoresis on 7.5% SDS-PAGE. The SDS/PAGE gels were fixed, colored in Coomassie Brilliant Blue R-250, dried, exposed to a storage phosphor intensifying screen (Amersham Biosciences), and analysed by using a Typhoon PhosphorImager (Amersham Biosciences) and ImageQuant 5.0 software to establish competition curves.
(In general: Loss of bound radioactivity is the signal in a displacement assay; it reports binding, not function.)

*1 amine or outer side, *2 acyl side, *3 side chain or, on linkers, in order; H or OH if unused. Where a SMILES comes first, the peptide text is derived from it. [ ]: non-standard residue; d: D form. The star is where a group is joined. X9 = O=C1C[C@H](N[*:1])CN1[C@@H](Cc1c[nH]c2ccccc12)C(=O)[*:2]; X10 = O=C1C[C@H](N[*:1])CN1[C@H](Cc1ccccc1)C(=O)[*:2]; X5 = O=C1C[C@@H](N[*:1])CN1[C@H](Cc1ccccc1)C(=O)[*:2]; X3 = N[C@@H]1CCN([C@H](Cc2c[nH]c3ccccc23)C(=O)*)C1=O; X4 = N[C@H]1CCN([C@H](Cc2c[nH]c3ccccc23)C(=O)*)C1=O; X2 = NCCCC[C@@H](C(N)=O)N1CC[C@H](N*)C1=O

From patent US20120101257A1, “PROCESSES FOR PREPARING AMINO-SUBSTITUTED GAMMA-LACTAMS” (UNIVERSITE DE MONTREAL, priority 2009, published 2012) come the findings set out here.

T1 sequence (Q92847 whole entry): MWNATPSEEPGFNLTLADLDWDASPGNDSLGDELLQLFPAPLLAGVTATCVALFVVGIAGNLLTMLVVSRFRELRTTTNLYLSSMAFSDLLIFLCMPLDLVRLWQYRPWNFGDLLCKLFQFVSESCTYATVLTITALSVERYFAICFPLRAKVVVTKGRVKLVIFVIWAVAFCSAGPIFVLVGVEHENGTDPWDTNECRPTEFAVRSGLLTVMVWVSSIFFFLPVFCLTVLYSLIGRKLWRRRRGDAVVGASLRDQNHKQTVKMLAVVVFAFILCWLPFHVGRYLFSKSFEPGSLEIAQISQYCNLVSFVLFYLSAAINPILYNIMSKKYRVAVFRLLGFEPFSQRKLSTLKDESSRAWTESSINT

In the case of `C[C@H](NC(=O)[C@@H](Cc1c[nH]c2ccccc12)NC(=O)[C@@H](N)Cc1c[nH]cn1)C(=O)N[C@@H]1CC(=O)N([C@H](Cc2ccccc2)C(=O)N[C@@H](CCCCN)C(N)=O)C1` [Compound 69, His-D-Trp-Ala-(R)-Bgl-D-Phe-Lys-NH2] (H-H[dW]A[X5]K-NH2), the IC50 (commonly the midpoint of a concentration-inhibition curve) at GHS-R1a receptor was more than 10 µM; at CD36 (rat cardiac membranes), 53.5 µM. Besides, the “reduction of CD36 binding affinity, factor compared with hexarelin” value on CD36 (compared with hexarelin) worked out at 10.
As to `C[C@H](NC(=O)[C@@H](Cc1c[nH]c2ccccc12)N1CC[C@@H](N)C1=O)C(=O)N[C@@H](Cc1c[nH]c2ccccc12)C(=O)N[C@H](Cc1ccccc1)C(=O)N[C@@H](CCCCN)C(N)=O` [Compound 60, (R)-Agl-D-Trp-Ala-Trp-D-Phe-Lys-NH2] (X3-AW[dF]K-NH2), the figures for the IC50 at GHS-R1a receptor and on CD36 (rat cardiac membranes) were 3.46 µM and 8.72 µM, respectively.
In the case of `C[C@@H](C(=O)NCN[C@@H](Cc1c[nH]c2ccccc12)C(=O)N[C@H](Cc1ccccc1)C(=O)N[C@@H](CCCCN)C(N)=O)N1C[C@@H](NC(=O)[C@@H](N)Cc2c[nH]cn2)CC1=O` [Compound 50, His-(S)-Bgl-Ala-Trp-D-Phe-Lys-NH2], the IC50 on GHS-R1a receptor and on CD36 (rat cardiac membranes) was more than 10 µM in each case.
Regarding `NCCCC[C@H](NC(=O)[C@H](Cc1ccccc1)NC(=O)[C@H](Cc1c[nH]c2ccccc12)N1CC[C@H](NC(=O)[C@@H](Cc2c[nH]c3ccccc23)NC(=O)[C@@H](N)Cc2c[nH]cn2)C1=O)C(N)=O` [Compound 46, His-D-Trp-(S)-Agl-Trp-D-Phe-Lys-NH2], on GHS-R1a receptor, the IC50 was determined as 2.39 µM and the “loss of GHS-R1a binding affinity, factor relative to GHRP-6” value is listed as 10^3. At CD36 (rat cardiac membranes), the IC50 was 7.45 µM and the “affinity for the CD36 receptor (in words)” value is recorded as “retained similar affinity”.
For `C[C@@H](C(=O)N[C@@H](Cc1c[nH]c2ccccc12)C(=O)N[C@H](Cc1ccccc1)C(=O)N[C@@H](CCCCN)C(N)=O)N1CC[C@H](NC(=O)[C@@H](N)Cc2c[nH]cn2)C1=O` [Compound 45, His-(S)-Agl-Ala-Trp-D-Phe-Lys-NH2], the IC50 was 28.6 µM on GHS-R1a receptor and 13.4 µM on CD36 (rat cardiac membranes). Besides, on CD36, the “drop of CD36 affinity, factor” value turned out to be 15.
In the case of `C[C@H](NC(=O)[C@@H](Cc1c[nH]c2ccccc12)N1CC[C@H](N)C1=O)C(=O)N[C@@H](Cc1c[nH]c2ccccc12)C(=O)N[C@H](Cc1ccccc1)C(=O)N[C@@H](CCCCN)C(N)=O` [Compound 44, (S)-Agl-D-Trp-Ala-Trp-D-Phe-Lys-NH2] (X4-AW[dF]K-NH2), the IC50 at GHS-R1a receptor turned out to be 0.0409 µM; on CD36 (rat cardiac membranes) it was 14.5 µM. Also, the “loss of GHS-R1a binding affinity, factor relative to GHRP-6” value on GHS-R1a receptor was determined as 10.
For `C[C@H](NC(=O)[C@@H](Cc1c[nH]c2ccccc12)NC(=O)[C@@H](N)Cc1c[nH]cn1)C(=O)N[C@H]1CC(=O)N([C@H](Cc2ccccc2)C(=O)N[C@@H](CCCCN)C(N)=O)C1` [Compound 52, His-D-Trp-Ala-(S)-Bgl-D-Phe-Lys-NH2] (H-H[dW]A[X10]K-NH2), the concentration for half-maximal inhibition (IC50) at GHS-R1a receptor and on CD36 (rat cardiac membranes) was more than 10 µM in each case.
Consider `NCCCC[C@H](NC(=O)[C@@H](Cc1ccccc1)NC(=O)[C@H](Cc1c[nH]c2ccccc12)N1C[C@@H](NC(=O)[C@@H](Cc2c[nH]c3ccccc23)NC(=O)[C@@H](N)Cc2cnc[nH]2)CC1=O)C(N)=O` [Compound 51, His-D-Trp-(S)-Bgl-Trp-D-Phe-Lys-NH2] (H-H[dW][X9][dF]K-NH2), for which the values for the IC50 on GHS-R1a receptor and on CD36 (rat cardiac membranes) were 0.654 µM and more than 10 µM, respectively.
Take `C[C@H](NC(=O)[C@@H](Cc1c[nH]c2ccccc12)NC(=O)[C@@H](N)Cc1c[nH]cn1)C(=O)N[C@@H]1CCN([C@H](Cc2ccccc2)C(=O)N[C@@H](CCCCN)C(N)=O)C1=O` [Compound 63, His-D-Trp-Ala-(R)-Agl-D-Phe-Lys-NH2]: the IC50 at GHS-R1a receptor and on CD36 (rat cardiac membranes) was more than 10 µM throughout.
As to `C[C@H](NC(=O)[C@@H](Cc1c[nH]c2ccccc12)NC(=O)[C@@H](N)Cc1c[nH]cn1)C(=O)N[C@@H](Cc1c[nH]c2ccccc12)C(=O)N[C@H]1CCN([C@@H](CCCCN)C(N)=O)C1=O` [Compound 48, His-D-Trp-Ala-Trp-(S)-Agl-Lys-NH2] (H-H[dW]AW-X2), the 50% inhibitory concentration (IC50) on GHS-R1a receptor was found to be 3.1 µM; at CD36 (rat cardiac membranes) it was 21.4 µM. On CD36, the “drop of CD36 affinity, factor” value worked out at 15.
